# Target: T1, human TLR7 (wild type sequence) (Homo sapiens, UniProt Q9NYK1)
# T1 construct: expressed in transfected cells; host or cells: HEK293
# T1 sequence (Q9NYK1 27-1049): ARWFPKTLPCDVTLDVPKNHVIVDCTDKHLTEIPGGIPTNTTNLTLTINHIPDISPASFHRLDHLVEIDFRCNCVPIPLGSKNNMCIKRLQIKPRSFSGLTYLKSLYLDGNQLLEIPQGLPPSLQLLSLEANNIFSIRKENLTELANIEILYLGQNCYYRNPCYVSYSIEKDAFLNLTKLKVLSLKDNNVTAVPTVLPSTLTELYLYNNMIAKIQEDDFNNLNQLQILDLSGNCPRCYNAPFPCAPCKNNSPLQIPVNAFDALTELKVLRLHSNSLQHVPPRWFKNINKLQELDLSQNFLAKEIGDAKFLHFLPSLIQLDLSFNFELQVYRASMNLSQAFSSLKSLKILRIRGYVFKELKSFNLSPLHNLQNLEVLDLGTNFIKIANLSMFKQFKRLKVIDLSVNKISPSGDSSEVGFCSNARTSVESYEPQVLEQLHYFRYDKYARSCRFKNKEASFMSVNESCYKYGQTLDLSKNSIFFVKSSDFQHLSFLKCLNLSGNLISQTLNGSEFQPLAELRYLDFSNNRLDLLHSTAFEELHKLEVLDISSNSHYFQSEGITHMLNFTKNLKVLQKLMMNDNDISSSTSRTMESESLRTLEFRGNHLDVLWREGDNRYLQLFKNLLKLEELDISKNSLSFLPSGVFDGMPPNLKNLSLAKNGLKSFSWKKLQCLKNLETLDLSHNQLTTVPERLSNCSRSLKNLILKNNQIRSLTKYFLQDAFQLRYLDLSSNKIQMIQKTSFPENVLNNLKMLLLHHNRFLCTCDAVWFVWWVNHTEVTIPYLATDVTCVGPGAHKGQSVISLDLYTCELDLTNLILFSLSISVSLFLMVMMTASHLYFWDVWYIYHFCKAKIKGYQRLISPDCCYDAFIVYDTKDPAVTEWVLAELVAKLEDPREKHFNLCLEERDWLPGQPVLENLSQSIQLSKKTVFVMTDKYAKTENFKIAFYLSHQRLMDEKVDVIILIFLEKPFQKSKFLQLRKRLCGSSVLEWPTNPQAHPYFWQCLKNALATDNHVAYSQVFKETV
# Assay: TLR7 cellular NFκB-luc reporter assay, wild type TLR7
# Type: cell-based
# Parameters: unit not given here
# Conditions: lowest effective concentration, wild type TLR7
# Procedure, shortened: (§1)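 HEK293 cells were transiently transfected for 48 h with a CMV-driven wild-type or LRR2-deletion TLR7 or TLR8 plasmid plus an NFκB-luc reporter. They were then exposed to compound for 6 h at 37 °C and luciferase was read. LEC is the concentration giving an effect at least twofold above the assay SD, from quadruplicate dose-response curves.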
row,SMILES,TLR7-wt_LEC
1,CCCCNc1nc(N)ncc1OC[C@H](C)OC [Compound 287],15.530
2,CCCCNc1nc(N)ncc1OCC(CC)OC (stereo not drawn) [Compound 288],>25
3,CCCCNc1nc(N)ncc1OCCOCC(C)C [Compound 289],0.875
4,CCCCNc1nc(N)ncc1OCC(C)O (stereo not drawn) [Compound 290],>25
5,CCCC[C@@H](CCO)Nc1nc(N)ncc1OCc1ccncc1 [Compound 291],0.120
6,CCC[C@@H](CCO)Nc1nc(N)ncc1OCc1ccccn1 [Compound 293],0.197
7,CCCC[C@@H](CCO)Nc1nc(N)ncc1OCc1ccccn1 [Compound 294],0.133
8,CCCC[C@@H](CCO)Nc1nc(N)ncc1OCc1cccc(C)n1 [Compound 295],0.047
9,CCCC[C@@H](CCO)Nc1nc(N)ncc1OCCOC(C)C [Compound 296],0.664
10,CCCC[C@@H](CCO)Nc1nc(N)ncc1OCc1nnn[nH]1 [Compound 297],2.810
11,CCCC[C@@H](CCO)Nc1nc(N)ncc1OCc1c[nH]nn1 [Compound 298],0.394
12,CCCC[C@@H](C[C@@H](C)O)Nc1nc(N)ncc1OC [Compound 300],1.740
13,CCC[C@@H](CCO)Nc1nc(N)ncc1OCCOC(C)C [Compound 301],1.170
14,CCC[C@@H](CCO)Nc1nc(N)ncc1OCc1ccncc1 [Compound 302],0.385

# Test system: human TLR7 mutant sequence comprising a deletion in the second leucine-rich repeat
# Assay: TLR7 cellular NFκB-luc reporter assay, mutant TLR7 with deletion in the second leucine-rich repeat
# Type: cell-based
# Parameters: unit not given here
# Conditions: lowest effective concentration
# Description: (§2) The ability of compounds to activate human TLR7 and/or TLR8 was assessed in a cellular reporter assay using HEK293 cells transiently transfected with a TLR7 or TLR8 expression vector and NFκB-luc reporter construct. In one instance the TLR expression construct expresses the respective wild type sequence or a mutant sequence comprising a deletion in the second leucine-rich repeat of the TLR.
# (§3) Briefly, HEK293 cells were grown in culture medium (DMEM supplemented with 10% FCS and 2 mM Glutamine). For transfection of cells in 10 cm dishes, cells were detached with Trypsin-EDTA, transfected with a mix of CMV-TLR7 or TLR8 plasmid (750 ng), NFκB-luc plasmid (375 ng) and a transfection reagent and incubated for 48 hours at 37° C. in a humidified 5% CO2 atmosphere. […] Thirty microliters of cells were then dispensed into each well in 384-well plates, where 10 μL of compound in 4% DMSO was already present. Following 6 hours incubation at 37° C., 5% CO2, the luciferase activity was determined by adding 15 μl of Steady Lite Plus substrate (Perkin Elmer) to each well and readout performed on a ViewLux ultraHTS microplate imager (Perkin Elmer). Dose response curves were generated from measurements performed in quadruplicates.
row,SMILES,TLR7-dIRR2_LEC
1,CCCCNc1nc(N)ncc1OC[C@H](C)OC [Compound 287],5.380
2,CCCCNc1nc(N)ncc1OCC(CC)OC (stereo not drawn) [Compound 288],10.200
3,CCCCNc1nc(N)ncc1OCCOCC(C)C [Compound 289],0.930
4,CCCCNc1nc(N)ncc1OCC(C)O (stereo not drawn) [Compound 290],9.110
5,CCCC[C@@H](CCO)Nc1nc(N)ncc1OCc1ccncc1 [Compound 291],0.407
6,CCC[C@@H](CCO)Nc1nc(N)ncc1OCc1ccccn1 [Compound 293],0.530
7,CCCC[C@@H](CCO)Nc1nc(N)ncc1OCc1ccccn1 [Compound 294],0.521
8,CCCC[C@@H](CCO)Nc1nc(N)ncc1OCc1cccc(C)n1 [Compound 295],0.430
9,CCCC[C@@H](CCO)Nc1nc(N)ncc1OCCOC(C)C [Compound 296],2.540
10,CCCC[C@@H](CCO)Nc1nc(N)ncc1OCc1nnn[nH]1 [Compound 297],>25
11,CCCC[C@@H](CCO)Nc1nc(N)ncc1OCc1c[nH]nn1 [Compound 298],2.840
12,CCCC[C@@H](C[C@@H](C)O)Nc1nc(N)ncc1OC [Compound 300],0.720
13,CCC[C@@H](CCO)Nc1nc(N)ncc1OCCOC(C)C [Compound 301],2.640
14,CCC[C@@H](CCO)Nc1nc(N)ncc1OCc1ccncc1 [Compound 302],0.487

# Same assay, conditions: lowest effective concentration, TLR7 mutant with deletion in second leucine-rich repeat
row,SMILES,TLR7-dIRR2_LEC
1,CCCCNc1nc(N)ncc1OCC1CC1 [Compound 39],3.01
2,CCCCCCCCOc1cnc(N)nc1NCCCC [Compound 40],2.69

# Target: T2, human TLR8 (wild type sequence) (Homo sapiens, UniProt Q9NR97)
# T2 construct: expressed in transfected cells; host or cells: HEK293
# T2 sequence (Q9NR97 27-1041): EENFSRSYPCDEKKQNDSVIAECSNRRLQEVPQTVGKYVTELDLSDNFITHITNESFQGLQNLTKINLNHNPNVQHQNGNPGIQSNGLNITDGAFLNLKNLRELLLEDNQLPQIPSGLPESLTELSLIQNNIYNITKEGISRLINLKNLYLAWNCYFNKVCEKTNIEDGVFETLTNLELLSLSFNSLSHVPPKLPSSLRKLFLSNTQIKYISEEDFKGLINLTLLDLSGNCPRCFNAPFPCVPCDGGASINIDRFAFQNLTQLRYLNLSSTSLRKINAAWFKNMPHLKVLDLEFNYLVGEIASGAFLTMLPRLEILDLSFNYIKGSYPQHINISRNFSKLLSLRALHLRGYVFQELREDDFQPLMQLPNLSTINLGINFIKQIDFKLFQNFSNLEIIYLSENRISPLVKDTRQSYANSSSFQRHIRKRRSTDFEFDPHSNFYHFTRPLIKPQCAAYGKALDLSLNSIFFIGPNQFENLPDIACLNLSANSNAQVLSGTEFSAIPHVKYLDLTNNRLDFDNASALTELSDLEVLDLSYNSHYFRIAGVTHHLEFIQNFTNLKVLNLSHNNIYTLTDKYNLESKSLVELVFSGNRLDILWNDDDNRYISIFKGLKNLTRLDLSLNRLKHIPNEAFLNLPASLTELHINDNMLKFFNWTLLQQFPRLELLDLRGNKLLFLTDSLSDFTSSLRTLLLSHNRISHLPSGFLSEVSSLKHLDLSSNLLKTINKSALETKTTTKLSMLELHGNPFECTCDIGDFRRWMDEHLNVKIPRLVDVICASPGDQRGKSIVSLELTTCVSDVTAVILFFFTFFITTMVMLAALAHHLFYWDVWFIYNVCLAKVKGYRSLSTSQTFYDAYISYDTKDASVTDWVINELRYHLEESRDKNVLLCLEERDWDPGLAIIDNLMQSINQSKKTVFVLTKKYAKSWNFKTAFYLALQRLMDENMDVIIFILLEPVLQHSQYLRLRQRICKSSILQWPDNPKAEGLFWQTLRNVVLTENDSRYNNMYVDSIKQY
# Assay: TLR8 cellular NFκB-luc reporter assay, wild type TLR8
# Type: cell-based
# Parameters: unit not given here
# Conditions: lowest effective concentration, wild type TLR8 (compounds 1-73)
# Procedure, shortened: as §1
row,SMILES,TLR8-wt_LEC
1,CCCCNc1nc(N)ncc1OCC1CC1 [Compound 39],14.41
2,CCCCCCCCOc1cnc(N)nc1NCCCC [Compound 40],>25

# Test system: human TLR8 mutant sequence comprising a deletion in the second leucine-rich repeat
# Assay: TLR8 cellular NFκB-luc reporter assay, mutant TLR8 with deletion in the second leucine-rich repeat
# Type: cell-based
# Parameters: unit not given here
# Conditions: lowest effective concentration
# Description: as §2, §3
row,SMILES,TLR8-dIRR2_LEC
1,CCCCNc1nc(N)ncc1OC[C@H](C)OC [Compound 287],3.560
2,CCCCNc1nc(N)ncc1OCC(CC)OC (stereo not drawn) [Compound 288],14.890
3,CCCCNc1nc(N)ncc1OCCOCC(C)C [Compound 289],0.647
4,CCCCNc1nc(N)ncc1OCC(C)O (stereo not drawn) [Compound 290],12.460
5,CCCC[C@@H](CCO)Nc1nc(N)ncc1OCc1ccncc1 [Compound 291],0.106
6,CCC[C@@H](CCO)Nc1nc(N)ncc1OCc1ccccn1 [Compound 293],0.088
7,CCCC[C@@H](CCO)Nc1nc(N)ncc1OCc1ccccn1 [Compound 294],0.042
8,CCCC[C@@H](CCO)Nc1nc(N)ncc1OCc1cccc(C)n1 [Compound 295],0.034
9,CCCC[C@@H](CCO)Nc1nc(N)ncc1OCCOC(C)C [Compound 296],0.310
10,CCCC[C@@H](CCO)Nc1nc(N)ncc1OCc1nnn[nH]1 [Compound 297],2.540
11,CCCC[C@@H](CCO)Nc1nc(N)ncc1OCc1c[nH]nn1 [Compound 298],0.058
12,CCCC[C@@H](C[C@@H](C)O)Nc1nc(N)ncc1OC [Compound 300],0.475
13,CCC[C@@H](CCO)Nc1nc(N)ncc1OCCOC(C)C [Compound 301],0.534
14,CCC[C@@H](CCO)Nc1nc(N)ncc1OCc1ccncc1 [Compound 302],0.070

# Same assay, conditions: lowest effective concentration, TLR8 mutant with deletion in second leucine-rich repeat
row,SMILES,TLR8-dIRR2_LEC
1,CCCCNc1nc(N)ncc1OCC1CC1 [Compound 39],7.10
2,CCCCCCCCOc1cnc(N)nc1NCCCC [Compound 40],>25
